Reference: paper PMC6792352, “Limited Chemical Structural Diversity Found to Modulate Thyroid Hormone Receptor in the Tox21 Chemical Library” (Environmental Health Perspectives, 2019)
Structures can show the parent of a compound that is named as a salt.

assay: in vitro; details: rat, gh3-tre-luc cells, AC50 (uM) modified / 1000

Compared with `NCCc1ccc(O)c(O)c1` [Dopamine hydrochloride], `Cc1cc(Cl)ccc1O` [4-Chloro-2-methylphenol] is higher in CC50 at 24 h: 55.3 µM for the first, > 90 µM for the second.

`CCCCC(C#N)(Cn1cncn1)c1ccc(Cl)cc1` (centres unmarked) [Myclobutanil] and `CCCCc1ccc(N)cc1` [4-Butylaniline] cannot be ordered by CC50 at 24 h: > 90 µM for the first, > 90 µM for the second.

`CC(C)(CO)[C@@H](O)C(=O)NCCC(=O)O` [Calcium pantothenate] and `CCCCCCC(C)(C)C(=O)O` [Calcium neodecanoate] cannot be ordered by CC50 at 24 h: > 50 µM for the first, > 90 µM for the second.

`CCCC(=O)O[C@]1(C(=O)CO)CC[C@H]2[C@@H]3CCC4=CC(=O)CC[C@]4(C)[C@H]3[C@@H](O)C[C@@]21C` [Hydrocortisone 17-butyrate] and `C=CCON=C(CCC)C1C(=O)CC(C)(C)C(C(=O)OC)C1=O` (centres unmarked) [Alloxydim-sodium] cannot be ordered by CC50 at 24 h: > 50 µM for the first, > 90 µM for the second.

`CCN[C@@H](C)Cc1ccccc1` [(S)-(+)-N-Ethylamphetamine hydrochloride] and `CCCCCC(=O)OCCc1ccccc1` [2-Phenylethyl hexanoate] cannot be ordered by CC50 at 24 h: > 100 µM for the first, > 90 µM for the second.

`CC(C)(C)NC(N)=O` [(1,1-Dimethylethyl)urea] and `CC(C)(C)NCC(O)c1ccc(O)c(CO)c1` (centres unmarked) [Albuterol] cannot be ordered by CC50 at 24 h: > 90 µM for the first, > 90 µM for the second.

`Clc1ccc(CCC(Cn2ccnc2)Sc2c(Cl)cccc2Cl)cc1` (centres unmarked) [Butoconazole nitrate] and `FC(F)(F)c1ccccc1-n1ccnc1` [1-[2-(Trifluoromethyl)phenyl]-1H-imidazole] cannot be ordered by CC50 at 24 h: > 20 µM for the first, > 50 µM for the second.

Going from `CCCCCCNC(=O)n1cc(F)c(=O)[nH]c1=O` [Carmofur] to `CCCCCCC(=O)c1ccccc1` [Heptanophenone], the CC50 at 24 h rises from 8.69 µM to > 90 µM.

`COc1ccc(C2CNC(=O)C2)cc1OC1CCCC1` (centres unmarked) [Rolipram] and `COc1ccc(OC)c(OC)c1` [1,2,4-Trimethoxybenzene] cannot be ordered by CC50 at 24 h: > 20 µM for the first, > 90 µM for the second.

`Sc1ncccn1` [Pyrimidine-2-thiol] and `Nc1nc(-c2ccccc2)cs1` [2-Amino-4-phenylthiazole hydrobromide hydrate] cannot be ordered by CC50 at 24 h: > 90 µM for the first, > 90 µM for the second.

`CCCCC(C)(O)C/C=C/[C@H]1[C@H](O)CC(=O)[C@@H]1CCCCCCC(=O)OC` (mixture of isomers) [Misoprostol] and `CCCCCCOC(=O)CCCCC(=O)OCCCCCC` [Dihexyl hexanedioate] cannot be ordered by CC50 at 24 h: > 50 µM for the first, > 90 µM for the second.

Going from `CN1CC[C@H](c2c(O)cc(O)c3c(=O)cc(-c4ccccc4Cl)oc23)[C@H](O)C1` [Flavopiridol hydrochloride] to `CN1CCC(=C2c3ccccc3Sc3ccccc32)CC1` [Pimethixene maleate], the CC50 at 24 h rises from 0.302 µM to 4.52 µM (15-fold).

`CCCCCCCCCCCBr` [1-Bromoundecane] and `CCCCCCCCCCCCCCCCCC(=O)OCC(O)CO` (centres unmarked) [Glycerol 1-monostearate] cannot be ordered by CC50 at 24 h: > 50 µM for the first, > 50 µM for the second.

`CCOc1nc(F)cc2nc(S(=O)(=O)Nc3c(Cl)cccc3Cl)nn12` [Diclosulam] and `Cn1cnc2c(F)c(Nc3ccc(Br)cc3Cl)c(C(=O)NOCCO)cc21` [Selumetinib] cannot be ordered by CC50 at 24 h: > 90 µM for the first, > 50 µM for the second.

`CCCC[C@@H](CC)COC(=O)c1ccccc1C(=O)OC[C@@H](CC)CCCC` [Di(2-ethylhexyl) phthalate] and `CCCCOC(=O)C(=O)Nc1cccc(-c2nnn[nH]2)c1` [Tazanolast] cannot be ordered by CC50 at 24 h: > 90 µM for the first, > 50 µM for the second.

`S=P(N1CC1)(N1CC1)N1CC1` [Thiotepa] and `C1CCCCC1` [Cyclohexane] cannot be ordered by CC50 at 24 h: > 100 µM for the first, > 90 µM for the second.

First: CC1=C2[C@@H]([C@H](C)CC[C@H]2/C=C(\C)C(=O)O)[C@H](O)C1 [Hydroxyvalerenic acid]
Second: CCCN(C1CCN(C(=O)C2CCNCC2)CC1)[C@@H]1CCc2ccc(OC)cc2C1 [PharmaGSID_48509]
The CC50 at 24 h of the first is higher: > 90 µM for the first, 69.1 µM for the second.

`OC[C@@H](O)C(O)[C@H](O)CO` [D-Arabinitol] and `N=C(N)NCCCCCCC(=O)NC(O)C(=O)NCCCCNCCCN` (centres unmarked) [Gusperimus trihydrochloride] cannot be ordered by CC50 at 24 h: > 50 µM for the first, > 50 µM for the second.

`CC(CN(C)C)CN1c2ccccc2Sc2ccc(C(F)(F)F)cc21` (centres unmarked) [Trifluomeprazine 2-butenedioate] and `CNCCC=C1c2ccccc2CCc2ccccc21` [Nortriptyline hydrochloride] are within 1.5-fold of each other in CC50 at 24 h: 9.4 µM for the first, 12.6 µM for the second.

Compared with `O=C(O)Cc1cccc2ccccc12` [Potassium 1-naphthaleneacetate], `O=C1C=CC(=O)N1c1ccccc1` [1-Phenyl-1H-pyrrole-2,5-dione] is lower in CC50 at 24 h: > 90 µM for the first, 5.48 µM for the second.

Going from `CC(C)(C)c1ccc(CCC=O)cc1` [3-(4-tert-Butylphenyl)propanal] to `NC(Cc1ccc(F)cc1)C(=O)O` (racemic) [4-Fluoro-dl-phenylalanine], the CC50 at 24 h falls from > 90 µM to 2.98 µM.

`CC[C@H](C)[C@@H]1NC(=O)[C@H](Cc2ccc(O)cc2)NC(=O)[C@@H](N)CSSC[C@@H](C(=O)N2CCC[C@H]2C(=O)N[C@@H](CC(C)C)C(=O)NCC(N)=O)NC(=O)[C@H](CC(N)=O)NC(=O)[C@H](CCC(N)=O)NC1=O` [Oxytocin acetate] and `NC(=O)c1cc[n+](CC2=C(C(=O)O)N3C(=O)[C@@H](NC(=O)[C@@H](c4ccccc4)S(=O)(=O)[O-])[C@H]3SC2)cc1` [Cefsulodin sodium] cannot be ordered by CC50 at 24 h: > 50 µM for the first, > 20 µM for the second.

`CC(C)(c1ccc(Oc2ccc3c(c2)C(=O)OC3=O)cc1)c1ccc(Oc2ccc3c(c2)C(=O)OC3=O)cc1` [2,2-Bis(4-(3,4-dicarboxyphenoxy)phenyl)propane dianhydride] and `CC(C)(C)CC(C)(C)c1ccc(Nc2ccc(C(C)(C)CC(C)(C)C)cc2)cc1` [4,4'-bis(1,1,3,3-Tetramethylbutyl)diphenylamine] cannot be ordered by CC50 at 24 h: > 90 µM for the first, > 5 µM for the second.

Going from `CC(Oc1cc(Cl)ccc1Cl)C(=O)O` (stereo not drawn) [alpha-(2,5-Dichlorophenoxy)propionic acid] to `COc1cc([N+](=O)[O-])ccc1N` [2-Methoxy-4-nitroaniline], the CC50 at 24 h falls from > 90 µM to 40.9 µM.

`CC(C)=CCC/C(C)=C/C=C/C(C)=C/C=C/C(C)=C/C=C/C=C(C)/C=C/C=C(C)/C=C/C=C(\C)CCC=C(C)C` [Lycopene] and `CC(=O)Nc1c(I)c(C(=O)N[C@H]2C(O)O[C@H](CO)[C@@H](O)[C@@H]2O)c(I)c(N(C)C(C)=O)c1I` (some centres unmarked) [Metrizamide] cannot be ordered by CC50 at 24 h: > 50 µM for the first, > 20 µM for the second.

`CCOC(=O)c1ccc(N(C)C)cc1` [Parbenate] and `CCN(CC)C(=O)c1cccc(C)c1` [DEET] cannot be ordered by CC50 at 24 h: > 90 µM for the first, > 90 µM for the second.

`NS(=O)(=O)c1ccc(C(=O)O)cc1` [Carzenide] and `Nc1ccccc1S(=O)(=O)c1ccccc1` [2-(Phenylsulfonyl)aniline] cannot be ordered by CC50 at 24 h: > 50 µM for the first, > 90 µM for the second.

`O=[N+]([O-])c1cc[n+]([O-])cc1` [4-Nitropyridine-1-oxide] and `O=Cc1ccc([N+](=O)[O-])cc1` [4-Nitrobenzaldehyde] cannot be ordered by CC50 at 24 h: > 90 µM for the first, > 90 µM for the second.

`CC1(C)C2=CCCC(C)(C)[C@]23CC[C@H]1C3` [(-)-Isolongifolene] and `Cc1ccc(C)c(N)c1` [2,5-Dimethylaniline] cannot be ordered by CC50 at 24 h: > 90 µM for the first, > 90 µM for the second.

`CCOC(=O)C1=NOC(c2ccccc2)(c2ccccc2)C1` [Isoxadifen-ethyl] and `c1ccc(Nc2ccccc2)cc1` [Diphenylamine] cannot be ordered by CC50 at 24 h: > 90 µM for the first, > 90 µM for the second.

`Nc1nc2c(ncn2COCCO)c(=O)[nH]1` [Acyclovir] and `CCO[Si](CCCN)(OCC)OCC` [3-Aminopropyltriethoxysilane] cannot be ordered by CC50 at 24 h: > 20 µM for the first, > 90 µM for the second.

`C=CCCC` [1-Pentene] and `CCOC1O[C@H]([C@@H](COCc2ccccc2)OCc2ccccc2)[C@H](OCc2ccccc2)[C@H]1O` (some centres unmarked) [Tribenoside] cannot be ordered by CC50 at 24 h: > 90 µM for the first, > 20 µM for the second.

same assay, conditions: rat, gh3-tre-luc cells, AC50 (uM) modified / 1000, Tox21_110001=Tox21_111273; viability, 1 nM T3 present, 24 h

For `COc1ccccc1N1CCNCC1` [1-(2-Methoxyphenyl)piperazine hydrochloride], the CC50 at 24 h was > 50 µM.

same assay, conditions: rat, gh3-tre-luc cells, AC50 (uM) modified / 1000, Tox21_110001=Tox21_111794; viability, 1 nM T3 present, 24 h

In the case of `CC(Cc1ccccc1)NC=O` (centres unmarked) [Formetorex], the CC50 at 24 h is reported as > 50 µM.

same assay, conditions: rat, gh3-tre-luc cells, AC50 (uM) modified / 1000, Tox21_110001=Tox21_112264; viability, 1 nM T3 present, 24 h

With `CC(=O)[C@H]1CC[C@H]2[C@@H]3CC[C@H]4C[C@](C)(O)CC[C@]4(C)[C@H]3CC[C@]12C` [Ganaxolone] the CC50 at 24 h was > 50 µM.

same assay, conditions: rat, gh3-tre-luc cells, AC50 (uM) modified / 1000, Tox21_110001=Tox21_113550; viability, 1 nM T3 present, 24 h

For `CC=C(CC)C(=O)NC(N)=O` [1-(2-Ethylcrotonoyl)urea], the CC50 at 24 h was > 50 µM.

same assay, conditions: rat, gh3-tre-luc cells, AC50 (uM) modified / 1000, Tox21_110001=Tox21_200290; viability, 1 nM T3 present, 24 h

`ClC1=C(Cl)C2(Cl)C3C(Cl)C(Cl)CC3C1(Cl)C2(Cl)Cl` (centres unmarked) [Technical chlordane] gave a CC50 at 24 h of 27.8 µM.

same assay, conditions: rat, gh3-tre-luc cells, AC50 (uM) modified / 1000, Tox21_110001=Tox21_200526; viability, 1 nM T3 present, 24 h

For `CCCCCCC#N` [Heptanenitrile], the CC50 at 24 h was > 90 µM.

same assay, conditions: rat, gh3-tre-luc cells, AC50 (uM) modified / 1000, Tox21_110001=Tox21_200802; viability, 1 nM T3 present, 24 h

In the case of `Nc1ccccc1Cl` [2-Chloroaniline], the CC50 at 24 h is reported as > 90 µM.

same assay, conditions: rat, gh3-tre-luc cells, AC50 (uM) modified / 1000, Tox21_110001=Tox21_201141; viability, 1 nM T3 present, 24 h

With `ClC(Cl)C(Cl)(Cl)Cl` [Pentachloroethane] the CC50 at 24 h was > 90 µM.

same assay, conditions: rat, gh3-tre-luc cells, AC50 (uM) modified / 1000, Tox21_110001=Tox21_201911; viability, 1 nM T3 present, 24 h

In the case of `ClC1=C(Cl)C2(Cl)C3C(Cl)C=CC3C1(Cl)C2(Cl)Cl` (centres unmarked) [Heptachlor], the CC50 at 24 h is reported as 37.8 µM.

same assay, conditions: rat, gh3-tre-luc cells, AC50 (uM) modified / 1000, Tox21_110001=Tox21_202411; viability, 1 nM T3 present, 24 h

In the case of `CC(C)CON=O` [Isobutyl nitrite], the CC50 at 24 h is reported as > 90 µM.

same assay, conditions: rat, gh3-tre-luc cells, AC50 (uM) modified / 1000, Tox21_110001=Tox21_300534; viability, 1 nM T3 present, 24 h

`ClC1=C(Cl)C2(Cl)C3C(Cl)C=CC3C1(Cl)C2(Cl)Cl` (centres unmarked) [Heptachlor] showed a CC50 at 24 h of 42.6 µM.

same assay, conditions: rat, gh3-tre-luc cells, AC50 (uM) modified / 1000, Tox21_110001=Tox21_301514; viability, 1 nM T3 present, 24 h

In the case of `CCCCOC(=O)CCC(=O)OCCCC` [Dibutyl butanedioate], the CC50 at 24 h is reported as > 90 µM.

same assay, conditions: rat, gh3-tre-luc cells, AC50 (uM) modified / 1000, Tox21_110001=Tox21_302863; viability, 1 nM T3 present, 24 h

In the case of `CC(C)CON=O` [Isobutyl nitrite], the CC50 at 24 h is reported as > 30 µM.
